Consider one molecule from patent US9174979B2, “Phenanthroindolizidine compound and NFκB inhibitor containing same as active ingredient” (KABUSHIKI KAISHA YAKULT HONSHA, priority 2008, dated 2015).

In general, IC50 refers to the midpoint of a concentration-inhibition curve. The solubility is the concentration that dissolves in the medium under given conditions. Lower therefore signals a poorly soluble substance.

Marks after values point to notes of the source that are not given here.

For one series, the system named is SV40 promoter. Nature of the series: SV40 promoter luciferase reporter assay in SW480/SV40-Luc cells. The format is cell-based, human. The following applies: Homo sapiens, SW480, read-out: SV40 promoter inhibitory activity IC50. From the text: (§1) The action of the phenanthroindolizidine alkaloid compound of the present invention on the NFκB activity was studied in a luciferase assay. Human colon cancer SW480 cells were transfected with pNFκB-Luc Plasmid (Stratagene), which is a reporter vector in which a five-time tandem repeat of the NFκB responsive element (NRE) is integrated into the upstream of the luciferase gene, using Lipofectamine 2000 (Invitrogen Corporation) in accordance with the attached operating procedure. Subsequently, the cells were cultured in an RPMI1640 medium containing 10% FBS, 100 U/mL penicillin, 100 μg/mL streptomycin, and 0.5 mg/mL G418 to produce SW480 cells having the luciferase gene, the expression of which is regulated by NRE, stably introduced therein (SW480/NRE-Luc cells). Likewise, SW480 cells were transfected with pGL3-Control Vector (Promega Corporation), which is a reporter vector in which the SV40 promoter is integrated into the upstream of the luciferase gene, to produce SW480 cells having the luciferase gene, the expression of which is regulated by the SV40 promoter, stably introduced therein (SW480/SV40-Luc cells). The SW480/NRE-Luc cells or the SW480/SV40-Luc cells were suspended in an RPMI1640 medium containing 10% FBS, 100 U/mL penicillin, and 100 μg/mL streptomycin (10% FBS/RPMI1640), and then seeded in a 96-well microplate, followed by culturing under conditions of 5% CO2 and at 37° C. (5000 cells/well). After an overnight culture, the compound of the present invention was added, followed by culturing for one hour. Further, 50 ng/mL TNFα (Sigma-Aldrich Corporation) was added, followed by culturing for four hours. Subsequently, a Steady-Glo Luciferase Assay reagent (Promega Corporation) was added, and the luminescent intensity was detected by SpectraMax M5e (Molecular Devices, Inc.) to measure the intracellular luciferase activity. It is to be noted that the action of the compound of the present invention on the NFκB activity or the SV40 promoter activity was shown as IC50 values (the concentration of a test compound needed for 50% inhibition of the induction of the luciferase expression).
On the technique in general: A reporter such as luciferase makes a cellular process visible.

For another series, the system named is mice. The series can be described thus: Animal toxicity test in mice transplanted with Meth A cells. The series is classed as in vivo, mouse. The note with it: intravenous on days 1, 5, 9, observed for three weeks. The method, then: Also, the toxicity of known phenanthroindolizidine alkaloid compounds in mice, namely (12aS,13S)-6,7-dimethoxy-9,10,11,12,12a,13-hexahydro-9a-aza-cyclopenta[b]triphenylene-3,13-diol (known compound 1; refer to WO01/023384) and (12aS,13S)-3,6,7-trimethoxy-9,10,11,12,12a,13-hexahydro-9a-aza-cyclopenta[b]triphenylene-13-ol (known compound 2; refer to Planta Med., 2002, 68: 186-188), was simultaneously studied. To a control group, a physiological saline solution as a solvent, was administered.

Series [1] relates to human colon cancer SW480 cells. The series can be described thus: Inhibitory action on the proliferation of SW480 cells. The series is classed as cell-based. The note with it: Homo sapiens, SW480; 48 hours culture, TetraColor ONE. As to the method:
(§2) The action of the phenanthroindolizidine alkaloid compound of the present invention on the proliferation of human colon cancer SW480 cells, HT-29 cells, and human non-small cell lung cancer A549 cells was studied. The SW480 cells were suspended in a 10% FBS/RPMI1640 and then seeded in a 96-well microplate, followed by culturing in 5% CO2 at 37° C. (2000 cells/well). The A549 cells and the HT-29 cells were each suspended in a DMEM medium containing 10% FBS, 100 U/mL penicillin, and 100 μg/mL streptomycin (10% FBS/DMEM) and a DMEM F-12 HAM medium containing 10% FBS, 100 U/mL penicillin, and 100 μg/mL streptomycin (10% FBS/DMEM F12 HAM), and then seeded in 96-well microplates, followed by culturing in 5% CO2 at 37° C. (1000 cells/well). After an overnight culture, the compound of the present invention was added, followed by further culturing for 48 hours (SW480 cells) and 96 hours (A549 cells and HT-29 cells). After culturing, the number of viable cells was counted using TetraColor ONE (Seikagaku Corporation) in accordance with the attached operating procedure. The results were expressed as the concentration of a test compound needed for 50% inhibition of the proliferation of the cells (IC50).

In series [2] the test system is human non-small cell lung cancer A549 cells. The series can be described thus: Inhibitory action on the proliferation of A549 cells. The format is cell-based. The following applies: Homo sapiens, A549; 96 hours culture, TetraColor ONE. The method, then:
as §2

Another series concerns NFκB. Nature of the series: NFκB luciferase reporter assay in SW480/NRE-Luc cells stimulated with TNFα. The series is classed as cell-based, human. The following applies: Homo sapiens, SW480, read-out: NFκB inhibitory activity IC50.
Text: as §1

Series [3] in a line: Measurement of solubility. The note with it: saline or isotonic. From the text:
In in vivo studies, the phenanthroindolizidine alkaloid compounds were used in the form of a salt.

Series [4] deals with mice with TPA-induced ear edema. Nature of the series: Anti-inflammatory effect in mice with TPA-induced ear edema. The format is in vivo, mouse. The following applies: intraperitoneal, 30 minutes before TPA 5 μg/ear; ICR mice; four hours after TPA. The method, then: The anti-inflammatory effect of the phenanthroindolizidine alkaloid compound of the present invention in vivo was studied using mice with phorbol 12-myristate 13-acetate (TPA)-induced ear edema. Compound 11, a compound of the present invention, was intraperitoneally administered to male 6-week-old ICR mice, and after 30 minutes, TPA (Sigma-Aldrich Corporation) dissolved in acetone was applied to the front and back of the right ear of the mice (5 μg/ear). Four hours after application of TPA, the thickness of the auricle was measured by a dial thickness gauge (Ozaki Mfg Co. Ltd.). A control group was administered with a 5% glucose solution as a solvent.

In series [5] the test system is human colon cancer HT-29 cells. The series can be described thus: Inhibitory action on the proliferation of HT-29 cells. The series is classed as cell-based. The note with it: Homo sapiens, HT-29; 96 hours culture, TetraColor ONE. As to the method: as §2
The test system of series [6] is mouse fibrosarcoma Meth A cells. Nature of the series: Antitumor effect in mice transplanted with mouse fibrosarcoma Meth A cells. The series is classed as in vivo. The following applies: intravenous on days 1, 5, 9, BALB/c mice, tumor weight on day 21. The method, then: The antitumor effect of the phenanthroindolizidine alkaloid compound of the present invention in vivo was studied using mice transplanted with mouse fibrosarcoma Meth A cells. Meth A cells were transplanted subcutaneously in the inguinal region of male 7-week-old BALB/c mice (2.5×10^5 cells/mouse). Subsequently, on days 1, 5, and 9, the compound of the present invention was intravenously administered. To a control group, physiological saline as a solvent, was administered. On day 21 after the cell transplantation, tumor was excised and measured for its weight, and subsequently a tumor growth-inhibition rate IR (%) was obtained by the following formula. Tumor growth-inhibition rate IR(%)=(1−the weight of the tumor in an administration group/the weight of the tumor in a control group)×100

On to `COc1cc2c3c(c4ccc(O)cc4c2cc1OC)C[C@@H]1CCCN1C3.Cl` [Compound 11, (S)-6,7-dimethoxy-9,10,11,12,12a,13-hexahydro-9a-aza-cyclopenta[b]triphenylene-3-ol hydrochloride], for which the 50% inhibitory concentration (IC50) was more than 10 ng/mL in the series on SV40 promoter; 3.8 ng/mL in series [1]; 0.024 ng/mL in series [2]; 1.2 ng/mL in the series on NFκB; 0.62 ng/mL in series [5]. Also, the Mortality rate with mice (total dose 25 mg/kg) and with mice (total dose 50 mg/kg) was 0/5 each time. In addition, in [3], the solubility amounted to 4000 µg/mL. For the same molecule, the “Anti-inflammatory effect (thickness of the auricle)” value in [4] is on record as “inhibiting TPA-induced ear edema in a dose-dependent manner”. Also, the “Tumor growth inhibition rate IR” value in series [6] (total dose 25 mg/kg) is 52.1** %; in [6] (total dose 50 mg/kg), 64.6** %.
